This note sets out measurements from ChEMBL document CHEMBL2331429, “Purgin II, a resin glycoside ester-type dimer and inhibitor of multidrug efflux pumps from Ipomoea purga” (J Nat Prod, 2013).

Data set [1] has as its system MCF7. As to the kind of experiment: Potentiation of vinblastine-induced cytotoxicity in human MCF7 cells at 25 ug/ml after 72 hrs by SRB assay. Format: functional.
Data set [2] concerns MCF7. As to the kind of experiment: Cytotoxicity against human vinblastine-resistant MCF7 cells after 72 hrs by SRB assay. Format: cell-based. The following applies: MCF7, 72 h.
The target in data set [3] is T1, ATP-dependent translocase ABCB1 (Homo sapiens, UniProt P08183). As to the kind of experiment: Inhibition of p-glycoprotein in human vinblastine-resistant MCF7 cells cultured in medium containing vinblastine assessed as potentiation of vinblastine-induced cytotoxicity at 25 ug/ml after 72 hrs by SRB assay. Format: cell-based. The following applies: mcf7, 72 h.
T1 sequence (P08183 whole entry): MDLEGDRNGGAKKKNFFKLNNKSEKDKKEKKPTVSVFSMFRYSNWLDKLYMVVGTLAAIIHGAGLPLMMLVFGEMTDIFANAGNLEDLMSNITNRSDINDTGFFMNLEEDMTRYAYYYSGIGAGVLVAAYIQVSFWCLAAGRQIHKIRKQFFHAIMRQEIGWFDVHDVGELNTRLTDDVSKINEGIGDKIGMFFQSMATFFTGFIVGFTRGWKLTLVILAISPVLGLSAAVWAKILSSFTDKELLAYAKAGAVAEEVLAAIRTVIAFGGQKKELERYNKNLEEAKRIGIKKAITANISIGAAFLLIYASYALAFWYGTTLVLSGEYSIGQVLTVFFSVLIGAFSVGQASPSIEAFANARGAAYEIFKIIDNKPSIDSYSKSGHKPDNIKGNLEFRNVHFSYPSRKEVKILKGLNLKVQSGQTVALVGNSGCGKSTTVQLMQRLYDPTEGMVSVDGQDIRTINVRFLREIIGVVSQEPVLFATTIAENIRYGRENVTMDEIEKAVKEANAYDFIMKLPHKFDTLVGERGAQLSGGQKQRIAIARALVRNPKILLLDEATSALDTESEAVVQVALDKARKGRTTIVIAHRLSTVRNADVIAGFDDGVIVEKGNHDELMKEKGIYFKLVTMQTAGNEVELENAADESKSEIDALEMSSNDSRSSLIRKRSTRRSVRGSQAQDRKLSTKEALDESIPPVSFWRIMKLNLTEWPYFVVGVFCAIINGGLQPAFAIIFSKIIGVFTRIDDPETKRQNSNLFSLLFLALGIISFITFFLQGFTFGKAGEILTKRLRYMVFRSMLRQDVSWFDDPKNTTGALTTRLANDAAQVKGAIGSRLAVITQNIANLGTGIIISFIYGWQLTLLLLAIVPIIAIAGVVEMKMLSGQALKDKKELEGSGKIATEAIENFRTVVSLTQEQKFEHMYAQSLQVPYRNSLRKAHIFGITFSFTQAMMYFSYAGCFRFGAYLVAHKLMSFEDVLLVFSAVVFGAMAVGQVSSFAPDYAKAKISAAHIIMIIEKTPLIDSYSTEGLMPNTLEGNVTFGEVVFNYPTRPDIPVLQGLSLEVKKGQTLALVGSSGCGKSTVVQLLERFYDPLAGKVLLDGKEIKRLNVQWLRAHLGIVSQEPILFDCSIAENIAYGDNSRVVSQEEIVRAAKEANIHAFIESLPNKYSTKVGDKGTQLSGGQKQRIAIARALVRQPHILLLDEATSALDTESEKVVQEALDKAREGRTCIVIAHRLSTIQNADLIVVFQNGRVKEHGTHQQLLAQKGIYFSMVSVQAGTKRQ
In data set [4] the target is T1, ATP-dependent translocase ABCB1. Kind of data set: Inhibition of p-glycoprotein in human vinblastine-resistant MCF7 cells cultured in vinblastine-free medium assessed as potentiation of vinblastine-induced cytotoxicity at 25 ug/ml after 72 hrs by SRB assay. Conditions: mcf7, 72 h. Format: cell-based.
The subject of data set [5] is MCF7. Kind of data set: Cytotoxicity against human MCF7 cells after 72 hrs by SRB assay. Format: cell-based. Conditions: MCF7, 72 h.
Data set [6] addresses T1, ATP-dependent translocase ABCB1. Kind of data set: Inhibition of p-glycoprotein in human vinblastine-resistant MCF7 cells assessed as increase of rhodamine-123 accumulation at 5 to 25 ug/ml measured up to 50 mins. The following applies: mcf7, 50 min. Format: cell-based.
In data set [7] the test system is MCF7. Kind of data set: Reversible inhibition of p-glycoprotein in human vinblastine-resistant MCF7 cells assessed as increase of rhodamine-123 accumulation at 5 to 25 ug/ml measured up to 50 mins. Format: cell-based.
In data set [8] the target is T1, ATP-dependent translocase ABCB1. Kind of data set: Inhibition of p-glycoprotein in human vinblastine-resistant MCF7 cells cultured in medium containing vinblastine assessed as potentiation of vinblastine-induced cytotoxicity at 5 ug/ml after 72 hrs by SRB assay. Format: cell-based. The following applies: mcf7, 72 h.
For data set [9] the target is unchanged. Kind of data set: Inhibition of p-glycoprotein in human vinblastine-resistant MCF7 cells cultured in vinblastine-free medium assessed as potentiation of vinblastine-induced cytotoxicity at 5 ug/ml after 72 hrs by SRB assay. Format: cell-based. The following applies: mcf7, 72 h.
Data set [10] shares this target. Kind of data set: Inhibition of p-glycoprotein in human vinblastine-resistant MCF7 cells assessed as increase of rhodamine-123 accumulation at 5 ug/ml measured up to 50 mins. Format: cell-based. Conditions: mcf7, 50 min.

Molecules are shown by their SMILES. Activity calls are given as the source filed them. The calls are words filed in the database; no cut-off is given here. Bounds are passed on as bounds.

Take `CCCCCCCCCC(=O)O[C@H]1[C@H](O[C@@H]2[C@@H](O)[C@@H](O)[C@H](O[C@H]3[C@H](O[C@@H](CCCCC)CCCCCCCCCC(=O)O[C@H]4[C@H](O)[C@@H](O)[C@H](O[C@@H]5[C@@H](O[C@@H]6O[C@@H](C)[C@H](OC(=O)CCCCC)[C@@H](OC(=O)/C=C/c7ccccc7)[C@H]6O)[C@H](C)O[C@@H](O[C@@H]6[C@@H](O)[C@H]7OC(=O)CCCCCCCCC[C@H](CCCCC)O[C@@H]8O[C@H](CO)[C@@H](O)[C@H](O)[C@H]8O[C@@H]7O[C@H]6C)[C@@H]5OC(=O)CCCCCCCCC)O[C@@H]4CO)O[C@H](CO)[C@@H](O)[C@@H]3O)O[C@H]2C)O[C@@H](C)[C@H](O[C@@H]2O[C@@H](C)[C@H](OC(=O)CCCCC)[C@@H](OC(=O)/C=C/c3ccccc3)[C@H]2O)[C@H]1O[C@@H]1O[C@H](CO)[C@@H](O)[C@H](O)[C@H]1O` [PURGIN III]: the “fold change (FC)” value in data set [1] is on record as 4.7; in data set [3], 6.4; in [4] it was 6.5. Moreover, the half-inhibitory concentration (IC50) in data set [2] and in data set [5] was above 25 µg/mL throughout.
For `CCCCCCCCCC(=O)O[C@H]1[C@H](O[C@@H]2[C@@H](O)[C@@H](O)[C@H](O[C@H]3[C@H](O[C@@H](CCCCC)CCCCCCCCCC(=O)O[C@H]4[C@H](O)[C@@H](O)[C@H](O[C@@H]5[C@@H](O[C@@H]6O[C@@H](C)[C@H](OC(=O)[C@@H](C)CC)[C@@H](OC(=O)/C=C/c7ccccc7)[C@H]6O)[C@H](C)O[C@@H](O[C@@H]6[C@@H](O)[C@H]7OC(=O)CCCCCCCCC[C@H](CCCCC)O[C@@H]8O[C@H](CO)[C@@H](O)[C@H](O)[C@H]8O[C@@H]7O[C@H]6C)[C@@H]5OC(=O)CCCCCCCCC)O[C@@H]4CO)O[C@H](CO)[C@@H](O)[C@@H]3O)O[C@H]2C)O[C@@H](C)[C@H](O[C@@H]2O[C@@H](C)[C@H](OC(=O)[C@@H](C)CC)[C@@H](OC(=O)/C=C/c3ccccc3)[C@H]2O)[C@H]1O[C@@H]1O[C@H](CO)[C@@H](O)[C@H](O)[C@H]1O` [PURGIN II], the “inhibition (INH)” value in [6] is listed as “Active”. Besides, the “fold change (FC)” value in [1] was above 73.4; in data set [3], above 1687.5; in data set [4] it was above 2140.6. Further, the IC50 in data set [2] and in data set [5] was above 25 µg/mL each time. The inhibition result in data set [7] is “Active”.
With `CCCCCCCCCCCC(=O)O[C@H]1[C@H](O[C@@H]2[C@@H](O)[C@@H](O)[C@H](O[C@H]3[C@H](O[C@@H](CCCCC)CCCCCCCCCC(=O)O[C@H]4[C@H](O)[C@@H](O)[C@H](O[C@@H]5[C@@H](O[C@@H]6O[C@@H](C)[C@H](OC(=O)[C@@H](C)CC)[C@@H](O)[C@H]6OC(=O)/C=C/c6ccccc6)[C@H](C)O[C@@H](O[C@@H]6[C@@H](O)[C@H]7OC(=O)CCCCCCCCC[C@H](CCCCC)O[C@@H]8O[C@H](C)[C@H](O)[C@H](O)[C@H]8O[C@@H]7O[C@H]6C)[C@@H]5OC(=O)CCCCCCCCCCC)O[C@@H]4CO)O[C@H](C)[C@H](O)[C@@H]3O)O[C@H]2C)O[C@@H](C)[C@H](O[C@@H]2O[C@@H](C)[C@H](OC(=O)[C@@H](C)CC)[C@@H](OC(=O)/C=C/c3ccccc3)[C@H]2O)[C@H]1O[C@@H]1O[C@H](CO)[C@@H](O)[C@H](O)[C@H]1O` [PURGIN I], the “fold change (FC)” value in [1] came to 2.9; in [3] it was 4.7; in data set [4], 3.8. Besides, the IC50 in data set [2] and in [5] was above 25 µg/mL throughout.
Regarding `CCCCCCCCCC(=O)O[C@H]1[C@H](O[C@@H]2[C@@H](O)[C@H]3OC(=O)CCCCCCCCC[C@H](CCCCC)O[C@@H]4O[C@H](C)[C@H](O)[C@H](O)[C@H]4O[C@@H]3O[C@H]2C)O[C@@H](C)[C@H](O[C@@H]2O[C@@H](C)[C@H](OC(=O)CCCCC)[C@@H](OC(=O)/C=C/c3ccccc3)[C@H]2O)[C@H]1O[C@@H]1O[C@H](CO)[C@@H](O)[C@H](O)[C@H]1O` [PURGINOSIDE II], the “fold change (FC)” value in data set [1] was 1.4; in data set [3] it was 1.2; in data set [4], 1.4. Further, the 50% inhibitory concentration (IC50) in data set [2] and in data set [5] was above 25 µg/mL each time.
Turning to `CCCCCCCCCC(=O)O[C@H]1[C@H](O[C@@H]2[C@@H](O)[C@H]3OC(=O)CCCCCCCCC[C@H](CCCCC)O[C@@H]4O[C@H](C)[C@H](O)[C@H](O)[C@H]4O[C@@H]3O[C@H]2C)O[C@@H](C)[C@H](O[C@@H]2O[C@@H](C)[C@H](OC(=O)CCCCC)[C@@H](O)[C@H]2O)[C@H]1O[C@@H]1O[C@H](CO)[C@@H](O)[C@H](O)[C@H]1O` [PURGINOSIDE IV], the “fold change (FC)” value in data set [1] turned out to be 2.5; in data set [3], 3.3; in [4] it was 3. For the same compound, the half-maximal inhibitory concentration (IC50) in data set [2] and in data set [5] was above 25 µg/mL throughout.
In the case of `CCCCCCCCCC(=O)O[C@H]1[C@H](O[C@@H]2[C@@H](O)[C@H]3OC(=O)CCCCCCCCC[C@H](CCCCC)O[C@@H]4O[C@H](C)[C@H](O)[C@H](O)[C@H]4O[C@@H]3O[C@H]2C)O[C@@H](C)[C@H](O[C@@H]2O[C@@H](C)[C@H](OC(=O)[C@@H](C)CC)[C@@H](O)[C@H]2OC(=O)/C=C/c2ccccc2)[C@H]1O[C@@H]1O[C@H](CO)[C@@H](O)[C@H](O)[C@H]1O` [PURGINOSIDE I], the “fold change (FC)” value in data set [1] is given as 0.8; in [3] it was 2.8; in data set [4] it was 2.9. Further, the IC50 in data set [2] and in data set [5] was above 25 µg/mL in each case.
Turning to `COC(=O)[C@H]1[C@H]2C[C@@H]3c4[nH]c5cc(OC)ccc5c4CCN3C[C@H]2C[C@@H](OC(=O)c2cc(OC)c(OC)c(OC)c2)[C@@H]1OC` [RESERPINE], the results for the “fold change (FC)” value in data set [8] and in [9] were 29.2 and 4.4, respectively. Besides, the “inhibition (INH)” value in data set [10] is recorded as “Active”.
